Legend:
Assay in all cases: Bliss excess, mean over the matrix (fraction); higher = more synergy
A2058 (Melanoma) = test system: A2058 (Melanoma)
Procedure, shortened: (§1)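 Bliss excess equals the observed combination effect minus the expected value EA + EB − EA·EB, where EA and EB are the effects of each agent alone. Combination Emax is the second-highest inhibition within the matrix. Inhibition was scaled from CellTiter-Glo 2.0 luminescence, with 0 set by vehicle wells and 1 by blank wells, after 72 hours of two-drug dosing of cells plated in 1536-well plates.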

[1] = test system: CAL-62 (Thyroid Gland Carcinoma)
Procedure, shortened: as §1

[2] = test system: FADU (Head and Neck Carcinoma)
Procedure, shortened: as §1

[3] = test system: HCT-15 (Colorectal Carcinoma)
Procedure, shortened: as §1

[4] = test system: KE-37 (T-Lymphoblastic Leukemia)
Procedure, shortened: as §1

[5] = test system: L-1236 (Hodgkin's Lymphoma)
Procedure, shortened: as §1

[6] = test system: LK-2 (Squamous Cell Lung Carcinoma)
Procedure, shortened: as §1

[7] = test system: LXF-289 (Lung Adenocarcinoma)
Procedure, shortened: as §1

[8] = test system: NCI-H446 (Small Cell Lung Carcinoma)
Procedure, shortened: as §1

[9] = test system: OPM-2 (Plasma Cell Myeloma)
Procedure, shortened: as §1

[10] = test system: OVMIU (Ovarian Carcinoma)
Procedure, shortened: as §1

[11] = test system: PC-3_[JPC-3] (Lung Adenocarcinoma)
Procedure, shortened: as §1

[12] = test system: PSN1 (Pancreatic Carcinoma)
Procedure, shortened: as §1

[13] = test system: REH (B-Lymphoblastic Leukemia)
Procedure, shortened: as §1

SF268 (Low Grade Glioma) = test system: SF268 (Low Grade Glioma)
Procedure, shortened: as §1

[14] = test system: SHP-77 (Small Cell Lung Carcinoma)
Procedure, shortened: as §1

[15] = test system: SK-PN-DW (Other Solid Carcinomas)
Procedure, shortened: as §1

[16] = test system: TE-8 (Esophageal Squamous Cell Carcinoma)
Procedure, shortened: as §1

WM278 (Melanoma) = test system: WM278 (Melanoma)
Procedure, shortened: as §1

WM793B (Melanoma) = test system: WM793B (Melanoma)
Procedure, shortened: as §1

| Structure (SMILES) | Bliss excess (A2058 (Melanoma)) | Bliss excess [1] | Bliss excess [2] | Bliss excess [3] | Bliss excess [4] | Bliss excess [5] | Bliss excess [6] | Bliss excess [7] | Bliss excess [8] | Bliss excess [9] | Bliss excess [10] | Bliss excess [11] | Bliss excess [12] | Bliss excess [13] | Bliss excess (SF268 (Low Grade Glioma)) | Bliss excess [14] | Bliss excess [15] | Bliss excess [16] | Bliss excess (WM278 (Melanoma)) | Bliss excess (WM793B (Melanoma)) |
| --- | --- | --- | --- | --- | --- | --- | --- | --- | --- | --- | --- | --- | --- | --- | --- | --- | --- | --- | --- | --- |
| COc1cccc2c1C(=O)c1c(O)c3c(c(O)c1C2=O)C[C@@](O)(C(=O)CO)C[C@@H]3O[C@H]1C[C@H](N)[C@H](O)[C@H](C)O1 [Doxorubicin] + Cc1cc2ncnn2cc1Nc1ncc2c(n1)n(C1CCOCC1)c(=O)n2C [AZD7648] (first compound max 1 µM, 7x7, partner max 10 µM) | 0.0185 | 0.0885 | 0.126 | 0.0644 | 0.0912 | 0.0332 | 0.0925 | 0.0233 | 0.0855 | 0.0221 | -0.0193 | -0.027 | 0.0173 | 0.177 | 0.0462 | 0.0556 | 0.105 | 0.0947 | 0.0204 | 0.0438 |
| COc1cc2ncnc(Nc3ccc(F)c(Cl)c3)c2cc1OCCCN1CCOCC1 [Gefitinib] + CC(C)n1c(=O)n(C)c2cnc3cc(F)c(-c4ccc(OCCCN5CCCCC5)nc4)cc3c21 [AZD1390] (first compound max 10 µM, 7x7, partner max 0.3 µM) | -0.0343 | -0.0451 | -0.0619 | -0.0533 | -0.0791 | -0.0467 | 0.0037 | -0.0717 | -0.0082 | -0.0151 | -0.0564 | -0.03 | -0.0338 | -0.0498 | -0.0727 | -0.0471 | -0.0293 | -0.075 | -0.0728 | -0.0816 |
| CS(=O)(=O)CCNCc1ccc(-c2ccc3ncnc(Nc4ccc(OCc5cccc(F)c5)c(Cl)c4)c3c2)o1 [Lapatinib] + C[C@@H](Oc1cc(-c2cnn(C3CCNCC3)c2)cnc1N)c1c(Cl)ccc(F)c1Cl [Crizotinib] (first compound max 10 µM, 7x7, partner max 10 µM) | -0.0237 | -0.0436 | -0.0302 | -0.0205 | 0.0236 | 0.0239 | 0.0067 | -0.0848 | -0.0344 | -0.0611 | -0.0097 | -0.0824 | -0.0443 | -0.0347 | -0.056 | -0.0004 | -0.0722 | -0.0294 | -0.0284 | -0.0192 |
| CC(=O)c1c(C)c2cnc(Nc3ccc(N4CCNCC4)cn3)nc2n(C2CCCC2)c1=O [Palbociclib] + CC1(C)CCC(CN2CCN(c3ccc(C(=O)NS(=O)(=O)c4ccc(NCC5CCOCC5)c([N+](=O)[O-])c4)c(Oc4cnc5[nH]ccc5c4)c3)CC2)=C(c2ccc(Cl)cc2)C1 [Venetoclax] (first compound max 10 µM, 7x7, partner max 1 µM) | -0.0231 | -0.029 | -0.0596 | 0.0105 | 0.0258 | 0.0003 | -0.0179 | -0.0189 | 0.0219 | 0.017 | -0.0402 | -0.0487 | -0.0149 | -0.0446 | -0.0344 | 0.0543 | -0.0063 | -0.0784 | -0.0338 | 0.0241 |
| CC(=O)c1c(C)c2cnc(Nc3ccc(N4CCNCC4)cn3)nc2n(C2CCCC2)c1=O [Palbociclib] + Cc1c2c(nn1C)CSCc1cc(n(C)n1)CSc1cc(c3ccccc3c1)OCCCc1c(C(=O)O)n(C)c3c-2c(Cl)ccc13 [AZD5991] (first compound max 10 µM, 7x7, partner max 1 µM) | 0.0085 | -0.0047 | -0.126 | 0.0011 | 0.0783 | -0.0341 | 0.0076 | 0.008 | 0.0062 | 0.0009 | -0.0416 | -0.0377 | -0.0111 | -0.0213 | 0.0193 | -0.0247 | -0.0194 | -0.108 | -0.0395 | -0.0134 |
| CC(=O)c1c(C)c2cnc(Nc3ccc(N4CCNCC4)cn3)nc2n(C2CCCC2)c1=O [Palbociclib] + Cn1cnc2c(F)c(Nc3ccc(Br)cc3Cl)c(C(=O)NOCCO)cc21 [Selumetinib] (first compound max 10 µM, 7x7, partner max 10 µM) | 0.0131 | 0.0248 | 0.115 | 0.0538 | 0.0207 | -0.0841 | 0.0281 | -0.0054 | -0.0689 | 0.0343 | -0.0097 | -0.0288 | 0.0226 | -0.0229 | -0.0269 | 0.0052 | -0.0164 | -0.0454 | -0.0152 | -0.0173 |
| COc1cccc(OCCCN)c1-c1cc(Nc2cnc(C#N)cn2)n[nH]1 [Prexasertib] + C=CCn1c(=O)c2cnc(Nc3ccc(N4CCN(C)CC4)cc3)nc2n1-c1cccc(C(C)(C)O)n1 [AZD1775] (first compound max 1 µM, partner max 1 µM) | 0.0994 | 0.137 | 0.084 | 0.0406 | 0.0311 | -0.0943 | 0.0739 | 0.0418 | 0.0829 | 0.0569 | 0.0574 | 0.0258 | 0.178 | 0.114 | 0.0619 | 0.0413 | 0.0025 | 0.0893 | 0.0753 | 0.0129 |

Source: the supplement of paper PMC11061612
